# Laboratory results taken from US20030129629A1, “Methods and compositions for the identification, assessment, prevention, and therapy of human cancers” (Millennium Pharmaceuticals, Inc., priority 2000, published 2003).
# Read-outs that look alike come from different tables or passages of the source.
# Key:
# [1] = tested on: 60 cancer cell lines (NCI 60 cancer cell line series); conditions: cited from earlier work
# [2] = tested on: 60 cancer cell lines (NCI 60 cancer cell line series); test: NCI-DTP in vitro cancer screen, sulforhodamine B (SRB) growth inhibition, 48 hour exposure; format: cell-based, human
# Outline: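 NCI-DTP panel of 60 cancer cell lines plated day 0 at line-specific densities, exposed from day 1 to compound at 5 ten-fold-spaced doses in duplicate wells. After 48 h, cell mass stained with sulforhodamine B; −log GI50 derived from dose–response curves, averaged, and classed Low, Medium or High sensitivity.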
substance,measurement,setting,value
Carboplatin,−Log (GI50),[1]; Breast BT-549 CL5013,3.7
same,−Log (GI50),[1]; Breast HS-578T CL5006,3.8
same,−Log (GI50),[1]; Breast MCF7(I) CL5001,3.9
same,−Log (GI50),[1]; Breast MCF7/ADRr CL5002,3.8
same,−Log (GI50),[1]; Breast MDA-MB-231 CL5005,3.6
same,−Log (GI50),[1]; Breast MDA-MB-435 CL5011,3.7
same,−Log (GI50),[1]; Breast MDA-N CL5012,3.8
same,−Log (GI50),[1]; Breast T-47D CL5014,3.6
same,−Log (GI50),[1]; CNS SF-268 CL12014,4.3
same,−Log (GI50),[1]; CNS SF-295 CL12015,4.2
same,−Log (GI50),[1]; CNS SF-539 CL12016,4.1
same,−Log (GI50),[1]; CNS SNB-19 CL12002,3.8
same,−Log (GI50),[1]; CNS SNB-75(I) CL12005,4.0
same,−Log (GI50),[1]; CNS U251(I) CL12009,4.2
same,−Log (GI50),[1]; Colon COLO-250 CL4010,3.6
same,−Log (GI50),[1]; Colon HCC-2998 CL4002,3.7
same,−Log (GI50),[1]; Colon HCT-15 CL4015,3.6
same,−Log (GI50),[1]; Colon HCT-116 CL4003,3.7
same,−Log (GI50),[1]; Colon HT29(I) CL4001,3.7
same,−Log (GI50),[1]; Colon KM12 CL4017,3.7
same,−Log (GI50),[1]; Colon SW-620 CL4009,3.8
same,−Log (GI50),[1]; Leukemia CCRF-CEM(I) CL7003,4.2
same,−Log (GI50),[1]; Leukemia HL-60(I) CL7008,4.5
same,−Log (GI50),[1]; Leukemia K562(I) CL7005,3.8
same,−Log (GI50),[1]; Leukemia MOLT-4 CL7006,4.1
same,−Log (GI50),[1]; Leukemia RPMI-8226(I) CL7010,3.8
same,−Log (GI50),[1]; Leukemia SR CL7019,4.1
same,−Log (GI50),[1]; Melanoma LOX IMVI CL10001,4.2
same,−Log (GI50),[1]; Melanoma M14 CL10014,4.0
same,−Log (GI50),[1]; Melanoma MALME-3M CL10002,4.1
same,−Log (GI50),[1]; Melanoma SK-MEL-2 CL10005,3.8
same,−Log (GI50),[1]; Melanoma SK-MEL-5 CL10007,4.0
same,−Log (GI50),[1]; Melanoma SK-MEL-28 CL10008,3.8
same,−Log (GI50),[1]; Melanoma UACC-62 CL10020,4.4
same,−Log (GI50),[1]; Melanoma UACC-257 CL10021,3.9
same,−Log (GI50),[1]; NSCLC A549/ATCC CL1004,4.0
same,−Log (GI50),[1]; NSCLC EKVX CL1008,3.7
same,−Log (GI50),[1]; NSCLC HOP-62 CL1026,3.9
same,−Log (GI50),[1]; NSCLC HOP-92 CL1029,4.0
same,−Log (GI50),[1]; NSCLC NCI-H23(I) CL1001,4.3
same,−Log (GI50),[1]; NSCLC NCI-H226 CL1013,3.9
same,−Log (GI50),[1]; NSCLC NCI-H332M CL1017,3.7
same,−Log (GI50),[1]; NSCLC NCI-H460 CL1021,4.5
same,−Log (GI50),[1]; NSCLC NCI-H522 CL1003,4.3
same,−Log (GI50),[1]; Ovarian IGROV1 CL6010,4.3
same,−Log (GI50),[1]; Ovarian OVCAR-3 CL6001,4.2
same,−Log (GI50),[1]; Ovarian OVCAR-4 CL6002,4.1
same,−Log (GI50),[1]; Ovarian OVCAR-5 CL6003,3.6
same,−Log (GI50),[1]; Ovarian OVCAR-8 CL6005,3.7
same,−Log (GI50),[1]; Ovarian SK-OV-3 CL6011,3.7
same,−Log (GI50),[1]; Prostate DU-145 CL11003,3.9
same,−Log (GI50),[1]; Prostate PC-3(I) CL11001,3.6
same,−Log (GI50),[1]; Renal 786-0 CL9018,4.0
same,−Log (GI50),[1]; Renal A498 CL9013,3.7
same,−Log (GI50),[1]; Renal ACHN CL9023,4.1
same,−Log (GI50),[1]; Renal CAKI-1 CL9015,4.1
same,−Log (GI50),[1]; Renal RXF-393 CL9016,4.2
same,−Log (GI50),[1]; Renal SN12C CL9008,3.8
same,−Log (GI50),[1]; Renal TK10 CL9024,3.7
same,−Log (GI50),[1]; Renal UO-31 CL9004,3.8
same,"classification of cell line as Low(1), Medium(2), High(3) sensitivity to compound",[2]; Breast BT-549 CL5013,2
same,"classification of cell line as Low(1), Medium(2), High(3) sensitivity to compound",[2]; Breast HS-578T CL5006,2
same,"classification of cell line as Low(1), Medium(2), High(3) sensitivity to compound",[2]; Breast MCF7(I) CL5001,2
same,"classification of cell line as Low(1), Medium(2), High(3) sensitivity to compound",[2]; Breast MCF7/ADRr CL5002,2
same,"classification of cell line as Low(1), Medium(2), High(3) sensitivity to compound",[2]; Breast MDA-MB-231 CL5005,1
same,"classification of cell line as Low(1), Medium(2), High(3) sensitivity to compound",[2]; Breast MDA-MB-435 CL5011,1
same,"classification of cell line as Low(1), Medium(2), High(3) sensitivity to compound",[2]; Breast MDA-N CL5012,2
same,"classification of cell line as Low(1), Medium(2), High(3) sensitivity to compound",[2]; Breast T-47D CL5014,1
same,"classification of cell line as Low(1), Medium(2), High(3) sensitivity to compound",[2]; CNS SF-268 CL12014,3
same,"classification of cell line as Low(1), Medium(2), High(3) sensitivity to compound",[2]; CNS SF-295 CL12015,3
same,"classification of cell line as Low(1), Medium(2), High(3) sensitivity to compound",[2]; CNS SF-539 CL12016,2
same,"classification of cell line as Low(1), Medium(2), High(3) sensitivity to compound",[2]; CNS SNB-19 CL12002,2
same,"classification of cell line as Low(1), Medium(2), High(3) sensitivity to compound",[2]; CNS SNB-75(I) CL12005,2
same,"classification of cell line as Low(1), Medium(2), High(3) sensitivity to compound",[2]; CNS U251(I) CL12009,2
same,"classification of cell line as Low(1), Medium(2), High(3) sensitivity to compound",[2]; Colon COLO-250 CL4010,1
same,"classification of cell line as Low(1), Medium(2), High(3) sensitivity to compound",[2]; Colon HCC-2998 CL4002,1
same,"classification of cell line as Low(1), Medium(2), High(3) sensitivity to compound",[2]; Colon HCT-15 CL4015,1
same,"classification of cell line as Low(1), Medium(2), High(3) sensitivity to compound",[2]; Colon HCT-116 CL4003,2
same,"classification of cell line as Low(1), Medium(2), High(3) sensitivity to compound",[2]; Colon HT29(I) CL4001,1
same,"classification of cell line as Low(1), Medium(2), High(3) sensitivity to compound",[2]; Colon KM12 CL4017,1
same,"classification of cell line as Low(1), Medium(2), High(3) sensitivity to compound",[2]; Colon SW-620 CL4009,2
same,"classification of cell line as Low(1), Medium(2), High(3) sensitivity to compound",[2]; Leukemia CCRF-CEM(I) CL7003,2
same,"classification of cell line as Low(1), Medium(2), High(3) sensitivity to compound",[2]; Leukemia HL-60(I) CL7008,3
same,"classification of cell line as Low(1), Medium(2), High(3) sensitivity to compound",[2]; Leukemia K562(I) CL7005,2
same,"classification of cell line as Low(1), Medium(2), High(3) sensitivity to compound",[2]; Leukemia MOLT-4 CL7006,2
same,"classification of cell line as Low(1), Medium(2), High(3) sensitivity to compound",[2]; Leukemia RPMI-8226(I) CL7010,2
same,"classification of cell line as Low(1), Medium(2), High(3) sensitivity to compound",[2]; Leukemia SR CL7019,2
same,"classification of cell line as Low(1), Medium(2), High(3) sensitivity to compound",[2]; Melanoma LOX IMVI CL10001,2
same,"classification of cell line as Low(1), Medium(2), High(3) sensitivity to compound",[2]; Melanoma M14 CL10014,2
same,"classification of cell line as Low(1), Medium(2), High(3) sensitivity to compound",[2]; Melanoma MALME-3M CL10002,2
same,"classification of cell line as Low(1), Medium(2), High(3) sensitivity to compound",[2]; Melanoma SK-MEL-2 CL10005,2
same,"classification of cell line as Low(1), Medium(2), High(3) sensitivity to compound",[2]; Melanoma SK-MEL-28 CL10008,2
same,sensitivity classification Low(1)/Medium(2)/High(3),[2]; NSCLC NCI-H23(I) CL1001,3
same,sensitivity classification Low(1)/Medium(2)/High(3),[2]; NSCLC NCI-H332M CL1017,1
same,sensitivity classification Low(1)/Medium(2)/High(3),[2]; NSCLC NCI-H460 CL1021,3
same,sensitivity classification Low(1)/Medium(2)/High(3),[2]; NSCLC NCI-H522 CL1003,3
same,sensitivity classification Low(1)/Medium(2)/High(3),[2]; Ovarian IGROV1 CL6010,3
same,sensitivity classification Low(1)/Medium(2)/High(3),[2]; Ovarian OVCAR-3 CL6001,2
same,sensitivity classification Low(1)/Medium(2)/High(3),[2]; Ovarian OVCAR-4 CL6002,2
same,sensitivity classification Low(1)/Medium(2)/High(3),[2]; Ovarian OVCAR-5 CL6003,1
same,sensitivity classification Low(1)/Medium(2)/High(3),[2]; Ovarian OVCAR-8 CL6005,2
same,sensitivity classification Low(1)/Medium(2)/High(3),[2]; Ovarian SK-OV-3 CL6011,2
same,sensitivity classification Low(1)/Medium(2)/High(3),[2]; Prostate DU-145 CL11003,2
same,sensitivity classification Low(1)/Medium(2)/High(3),[2]; Prostate PC-3(I) CL11001,1
same,sensitivity classification Low(1)/Medium(2)/High(3),[2]; Renal 786-0 CL9018,2
same,sensitivity classification Low(1)/Medium(2)/High(3),[2]; Renal A498 CL9013,1
same,sensitivity classification Low(1)/Medium(2)/High(3),[2]; Renal ACHN CL9023,2
same,sensitivity classification Low(1)/Medium(2)/High(3),[2]; Renal CAKI-1 CL9015,2
same,sensitivity classification Low(1)/Medium(2)/High(3),[2]; Renal RXF-393 CL9016,2
same,sensitivity classification Low(1)/Medium(2)/High(3),[2]; Renal SN12C CL9008,2
same,sensitivity classification Low(1)/Medium(2)/High(3),[2]; Renal TK10 CL9024,1
same,sensitivity classification Low(1)/Medium(2)/High(3),[2]; Renal UO-31 CL9004,2
